From patent US9345691B2, “Beta-lactam compounds for enhancing T cell-mediated immune responses” (STEM CELL MEDICINE LTD., priority 2011, dated 2016)
Entries after “also recorded” stand apart in the source; their conditions may differ.

How the values were obtained:
[1] = test system: CD4+ human T cells; experiment: Human Autoimmune and Inflammatory Response Gene Array, anti-CD3 stimulated T cells; assay type: cell-based; details: 120 min anti-CD3; for % decrease by Cef.: cefuroxime 50 μg/ml, ±SD, relative to control
Description: T cells were purified from the peripheral bloods of healthy human donors (Blood Bank, Sheba Medical center). The whole blood was incubated (20 min, 22° C.) with RosetteSep™ human T cell enrichment mixture (StemCell Technologies, Vancouver, Canada). The remaining unsedimented cells were then loaded onto lymphocyte separation medium (ICN Biomedicals, Irvine, Calif.), isolated by density centrifugation, and washed with PBS. […] In a second round of purification, CD3^+ T cells were labeled for selection with a magnetically coupled mAb against CD4 (Miltenyi Biotec, Auburn, Calif.).
Human CD4 T cells were isolated as described, and incubated in 24 well plates (Nunc), 4×10^6 cells/ml with plate bound anti-human CD3 (OKT3) at 2 μg/ml. The stimulation was performed in RPMI medium supplemented with 0.1% BSA. […] RNA was extracted from samples and used to prepare probes for gene array in accord with the manufacturer's instructions (SuperArray Bioscience, Frederick, Md.). Adequate labeling of the probes was tested before hybridization. Three healthy donors were tested in stimulation with cefuroxime. The membranes were analyzed online with the Image Data Acquisition and Expression Analysis (SuperArray Bioscience).
The Human Autoimmune and Inflammatory Response Gene Array (SuperArray Bioscience corporation, Frederick, Md., USA) was used for analysis of gene expression by the T cells. This array contains 367 genes including cytokines, chemokines and their receptors, transcription factors and signaling proteins. […] Analysis of the results was performed using the GEArray analysis program (www.SuperArray.com). […] To verify the results detected by the gene array study, a panel of six genes was designed and tested by real-time PCR: CCR4, ACVR2, JAK1, STAT4, TLR2 and NFKBIE. The cDNA that was used was prepared from the same RNA used for the gene array experiment.

[2] = test system: encephalitogenic BP10 T-cell line; experiment: Adoptive EAE by BP10 line stimulated in vitro with test substance; assay type: in vivo, rat
Source text: The ability of a compound to enhance T cell activity may be determined, for example, using an in vivo assay testing the effect of a given compound on the severity of adoptive (passive) EAE, namely, EAE which is induced by the injection of activated encephalitogenic T cell line to the model animal. In order to test a compound, the encephalitogenic T cells are activated in the presence of the compound prior to injection. An exemplary procedure is described in the Examples section hereinbelow.
Antigen-specific T-cell lines were established from lymph node cells that had been stimulated with myelin basic protein (MBP; 10 μg/ml) for 3 days in stimulation medium as described below. Following stimulation, the T-cell blasts were isolated on Lympho-prep (Nycomed Pharma, Oslo, Norway) and seeded in propagation medium. Propagation medium was identical to stimulation medium without autologous serum, but supplemented with fetal calf serum 10% and T-cell growth factors from the supernatant of Con A stimulated spleen cells 10% (Mor et al. (1990) J Clin Invest, 85, 1594-1598). Animals were injected intra-peritoneally with 10^7 MBP-stimulated T cells, following 6-8 cycles of in vitro stimulations. It is known that MBP-reactive lines undergo a reduction in pathogenicity after 6 or more in vitro stimulations. In some experiments the BP10 line was stimulated with phorbol myristate acetate (PMA; 50 ng/ml) and ionomycin (500 ng/ml) for 3 days in stimulation medium, without antigen-presenting cells.
Active EAE was induced by subcutaneous injection of 25 μg guinea-pig MBP (GpMBP) in complete Freund's adjuvant (CFA). CFA was prepared by adding 4 mg/ml Mycobacterium tuberculosis H37Ra (Difco, Mich.) to incomplete Freund's adjuvant (IFA). Adoptive EAE was transferred by intra-peritoneal injection of guinea-pig MBP-activated cells of the BP10 line as described in Mor et al. (1993) J Clin Invest, 92, 2199-2206. […] Clinical scoring was: +1, paralysis of tail; +1.5, paresis of posterior paws and ataxia; +2, paraplegia; +3, paralysis extending to thoracic spine; +4, a moribund state.
Treatment with cefuroxime in vivo could affect many different host agents involved in EAE or AA as well as influencing the rats' bacterial flora. To test whether the antibiotic might directly modify the behavior of effector T cells, an encephalitogenic T-cell line was stimulated in the presence or absence of cefuroxime in vitro. The weakly encephalitogenic BP10 line was used, and was stimulated for 3 days with MBP in the presence or absence of cefuroxime (50 μg/ml). The activated T cells were then washed to remove the antibiotic, the T cells were injected intra-peritoneally into naïve recipient rats (10^7 per rat), and EAE was scored. The BP10 line at later stimulations was used, when its pathogenic potential is reduced, allowing to detect both suppression and enhancement of disease. […] To rule out antigen presenting cells (APC) as the target of the beta-lactam antibiotic, the encephalitogenic BP10 line was stimulated without APC using PMA (50 ng/ml) and Ionomycin (500 ng/ml) in the presence or absence of cefuroxime.

CO/N=C(\C(=O)N[C@@H]1C(=O)N2C(C(=O)O)=C(COC(N)=O)CS[C@H]12)c1ccco1 [cefuroxime]
number of genes down-regulated ([1]; array of 367 genes, 50 μg/ml): Fifty-seven | % decrease by Cef. ([1]; gene ACTB): 49 ± 11% | % decrease by Cef. ([1]; gene ACVR1): 42 ± 0.7% | % decrease by Cef. ([1]; gene ACVR2): 60 ± 14.8% | % decrease by Cef. ([1]; gene CCL5): 21 ± 5.6% | % decrease by Cef. ([1]; gene CCL11): 18 ± 6.6% | % decrease by Cef. ([1]; gene CCR4): 39 ± 2% | % decrease by Cef. ([1]; gene CCR6): 53 ± 5.6% | % decrease by Cef. ([1]; gene CCR7): 38 ± 8.1% | % decrease by Cef. ([1]; gene CD28): 51 ± 2.1% | % decrease by Cef. ([1]; gene CD40LG): 33 ± 7.1% | % decrease by Cef. ([1]; gene CREB1): 19 ± 4.9% | % decrease by Cef. ([1]; gene CREBBP): 40 ± 9.9% | % decrease by Cef. ([1]; gene CXCL10): 39 ± 3% | % decrease by Cef. ([1]; gene EGR3): 38 ± 2.8% | % decrease by Cef. ([1]; gene GFI1): 45 ± 14% | % decrease by Cef. ([1]; gene HRAS): 30 ± 9.8% | % decrease by Cef. ([1]; gene IL1B): 54 ± 7.0% | % decrease by Cef. ([1]; gene IL2RB): 50 ± 9.9% | % decrease by Cef. ([1]; gene IL2RG): 57 ± 9.8% | % decrease by Cef. ([1]; gene IL9R): 27.5 ± 3% | % decrease by Cef. ([1]; gene IL16): 50 ± 7.8% | % decrease by Cef. ([1]; gene IRAK1): 44 ± 2.1% | % decrease by Cef. ([1]; gene JAK1): 53 ± 13.4% | % decrease by Cef. ([1]; gene JUN): 49 ± 2.2% | % decrease by Cef. ([1]; gene LTA): 17 ± 10% | % decrease by Cef. ([1]; gene MAP2K4): 52 ± 14.1% | % decrease by Cef. ([1]; gene MAP3K1): 53 ± 12% | % decrease by Cef. ([1]; gene MAP3K2): 36 ± 12% | % decrease by Cef. ([1]; gene MAP3K7): 46 ± 9.9% | % decrease by Cef. ([1]; gene MAPK9): 42 ± 10.9% | % decrease by Cef. ([1]; gene NFKB1): 43 ± 3.5% | % decrease by Cef. ([1]; gene NFKB2): 53 ± 10.6% | % decrease by Cef. ([1]; gene NFKBIE): 63 ± 11% | % decrease by Cef. ([1]; gene NFKBIL1): 54 ± 12.5% | % decrease by Cef. ([1]; gene PAK1): 40 ± 2.4% | % decrease by Cef. ([1]; gene PIN1): 45 ± 12.1% | % decrease by Cef. ([1]; gene RANBP5): 33 ± 3.5% | % decrease by Cef. ([1]; gene REL): 45 ± 1.9% | % decrease by Cef. ([1]; gene RFX5): 36 ± 4.2% | % decrease by Cef. ([1]; gene RFXAP): 27 ± 12% | % decrease by Cef. ([1]; gene SDF2): 28 ± 12% | % decrease by Cef. ([1]; gene SELL): 46 ± 7.0% | % decrease by Cef. ([1]; gene SMAD4): 47 ± 7.0% | % decrease by Cef. ([1]; gene SMAD7): 47 ± 4.2% | % decrease by Cef. ([1]; gene SP3): 39 ± 9.9% | % decrease by Cef. ([1]; gene SRF): 38 ± 1.9% | % decrease by Cef. ([1]; gene STAT1): 32 ± 11% | % decrease by Cef. ([1]; gene STAT4): 47 ± 9.3% | % decrease by Cef. ([1]; gene STAT6): 47 ± 7.9% | % decrease by Cef. ([1]; gene TGFBR3): 44 ± 3.5% | % decrease by Cef. ([1]; gene TGIF): 43 ± 3.5% | % decrease by Cef. ([1]; gene TLR2): 52 ± 14% | % decrease by Cef. ([1]; gene TNFRSF11A): 43 ± 2% | % decrease by Cef. ([1]; gene TNFα): 29 ± 8.5% | % decrease by Cef. ([1]; gene TRAF5): 43 ± 2.2% | % decrease by Cef. ([1]; gene TRAF6): 43 ± 3.5% | % decrease by Cef. ([1]; gene YY1): 23 ± 9.1% | severity of adoptive EAE ([2]; BP10 line stimulated 3 days with MBP in presence of 50 μg/ml, 10^7 cells IP per rat): markedly enhanced the manifestations of EAE; also recorded: enhanced EAE severity; also recorded: enhances the pathogenicity of the BP10 line | severity of adoptive EAE ([2]; BP10 line stimulated without APC using PMA (50 ng/ml) and Ionomycin (500 ng/ml)): significantly more severe | severity of adoptive EAE ([2]; dose-response, BP10 line stimulated in presence of 5 μg/ml): ineffective | severity of adoptive EAE ([2]; dose-response, BP10 line stimulated in presence of 25 μg/ml): enhancing effect similar to that of 50 μg/ml
